Measurements from BindingDB's records for doi:10.1021/bi400413c (Stony Brook University, 2013).

target: T1, Enoyl-[acyl-carrier-protein] reductase [NADPH] FabI (Staphylococcus aureus (strain MRSA252), UniProt Q6GI75); assay: Thermal Shift Assay; conditions: pH 7.5
T1 sequence (Q6GI75 whole entry): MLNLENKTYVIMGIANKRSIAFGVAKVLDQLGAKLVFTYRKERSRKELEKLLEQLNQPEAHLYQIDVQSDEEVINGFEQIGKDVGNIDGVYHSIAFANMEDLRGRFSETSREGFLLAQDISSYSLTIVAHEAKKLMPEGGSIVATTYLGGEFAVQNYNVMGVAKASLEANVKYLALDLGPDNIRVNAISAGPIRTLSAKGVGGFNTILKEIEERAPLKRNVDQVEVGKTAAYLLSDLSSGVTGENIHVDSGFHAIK
Description: ThermoFluor experiments were carried out in 96-well plates (Concord) using the CFX96 RealTime PCR Detection system and C1000 Thermal Cycler (BioRad).

SMILES | Ki
CCCCCCc1ccc(Oc2ccccc2N)c(O)c1 | 0.12 nM
Oc1ccccc1Oc1ccccc1 [2-phenoxylphenol] | 18.9 nM
CCCCCCCCc1ccc(Oc2ccccc2)c(O)c1 [5-Octyl-2-phenoxy-phenol] | 0.82 nM
Oc1cc(Br)ccc1Oc1ccccc1 [5-bromo-2-phenoxylphenol] | 0.06 nM
CCCCCCc1ccc(Oc2ccccc2)c(O)c1 [5-hexyl-2-phenoxyphenol] | 0.01 nM
CCCCCc1ccc(Oc2ccccc2)c(O)c1 [5-pentyl-2-phenoxylphenol] | 0.04 nM
CCCc1ccc(Oc2ccccc2)c(O)c1 [PT02] | 0.07 nM
Cc1ccc(Oc2ccccc2)c(O)c1 [PT53] | 0.38 nM
Oc1cc(F)ccc1Oc1ccccc1 [PT55] | 1.42 nM
C=CCc1ccc(Oc2ccccc2)c(O)c1 [PT68] | 0.11 nM
Oc1cc(Cc2ccccc2)ccc1Oc1ccccc1 [PT89] | 0.1 nM
Cc1ccccc1Oc1ccc(CCc2ccccc2)cc1O [PT162] | 0.5 nM
N#Cc1ccccc1Oc1ccc(Br)cc1O [PT443] | 0.05 nM
N#Cc1ccccc1Oc1ccc(F)cc1O [PT446] | 1.01 nM
